Activity calls are given as the source filed them. The rule behind the calls is not given here.

We go through nine compounds from ChEMBL document CHEMBL5352436, “Triterpenoid pyrazines and pyridines - Synthesis, cytotoxicity, mechanism of action, preparation of prodrugs” (Eur J Med Chem, 2022).

The subject of series [1] is CCRF-CEM. In words: Cytotoxicity against human CCRF-CEM cells assessed as reduction in cell viability incubated for 72 hrs by MTS assay. It is filed as functional, cell-based. In general terms: Formazan colour is commonly taken as a measure of viable cells.
In a further series the test system is CEM-DNR. In words: Cytotoxicity against human CEM-DNR cells assessed as reduction in cell viability incubated for 72 hrs by MTS assay. It is filed as functional, cell-based.
The next series deals with K562. Nature of the series: Cytotoxicity against human K562 cells assessed as reduction in cell viability incubated for 72 hrs by MTS assay. It is filed as functional, cell-based. To be noted: K562, 72 h.
Series [2] in a line: Cytotoxicity against human K562-Tax cells assessed as reduction in cell viability incubated for 72 hrs by MTS assay. It is filed as functional, cell-based.
The test system of another series is HCT-116. In words: Cytotoxicity against human HCT-116 cells assessed as reduction in cell viability incubated for 72 hrs by MTS assay. It is filed as functional, cell-based. To be noted: HCT-116, 72 h.
The nature of series [3]: Cytotoxicity against human HCT116-p53-null cells assessed as reduction in cell viability incubated for 72 hrs by MTS assay. Format: functional, cell-based.
In the next series the test system is A549. Nature of the series: Cytotoxicity against human A549 cells assessed as reduction in cell viability incubated for 72 hrs by MTS assay. It is filed as functional, cell-based. To be noted: A549, 72 h.
A further series has as its system U2OS. In words: Cytotoxicity against human U2OS cells assessed as reduction in cell viability incubated for 72 hrs by MTS assay. Format: functional, cell-based.
A short description of series [4]: Cytotoxicity against human BJ cells assessed as reduction in cell viability incubated for 72 hrs by MTS assay. It is filed as toxicity, cell-based.
Series [5] can be described thus: Cytotoxicity against human MRC5 cells assessed as reduction in cell viability incubated for 72 hrs by MTS assay. It is filed as toxicity, cell-based.
In series [6] the test system is CCRF-CEM. In words: Induction of apoptosis in human CCRF-CEM cells assessed as viable cells at 1 time IC50 incubated for 24 hrs by Annexin V and propidium iodide staining based flow cytometry analysis […]. It is filed as functional. For orientation: A flow cytometer gives signals particle by particle.
Series [7] concerns CCRF-CEM. In words: Induction of apoptosis in human CCRF-CEM cells assessed as early apoptotic cells at 1 time IC50 incubated for 24 hrs by Annexin V and propidium iodide staining based flow cytometry analysis (reference value: […]). It is filed as functional.
Series [8] deals with CCRF-CEM. In words: Induction of apoptosis in human CCRF-CEM cells assessed as late apoptotic cells at 1 time IC50 incubated for 24 hrs by Annexin V and propidium iodide staining based flow cytometry analysis (reference value: […]). It is filed as functional.
The test system of series [9] is CCRF-CEM. In words: Induction of apoptosis in human CCRF-CEM cells assessed as necrotic cells at 1 time IC50 incubated for 24 hrs by Annexin V and propidium iodide staining based flow cytometry analysis (reference value: 0.0%). Format: functional.
For series [10], the system named is CCRF-CEM. In words: Induction of apoptosis in human CCRF-CEM cells assessed as viable cells at 5 times IC50 incubated for 24 hrs by Annexin V and propidium iodide staining based flow cytometry analysis […]. Format: functional.
Series [11] concerns CCRF-CEM. In words: Induction of apoptosis in human CCRF-CEM cells assessed as early apoptotic cells at 5 times IC50 incubated for 24 hrs by Annexin V and propidium iodide staining based flow cytometry analysis […]. It is filed as functional.
The subject of series [12] is CCRF-CEM. In words: Induction of apoptosis in human CCRF-CEM cells assessed as late apoptotic cells at 5 times IC50 incubated for 24 hrs by Annexin V and propidium iodide staining based flow cytometry analysis […]. It is filed as functional.
Series [13] relates to CCRF-CEM. In words: Induction of apoptosis in human CCRF-CEM cells assessed as necrotic cells at 5 times IC50 incubated for 24 hrs by Annexin V and propidium iodide staining based flow cytometry analysis […]. Format: functional.
The subject of series [14] is CCRF-CEM. In words: Induction of apoptosis in human CCRF-CEM cells assessed as accumulation of Bax protein expression at 1 to 5 times IC50 incubated for 24 hrs by Western blot analysis. Format: functional, cell-based. (In general: In western blotting, separated proteins are transferred to a membrane and probed.)
The subject of series [15] is CCRF-CEM. Nature of the series: Induction of apoptosis in human CCRF-CEM cells assessed as accumulation of Bid protein expression at 1 to 5 times IC50 incubated for 24 hrs by Western blot analysis. Format: functional, cell-based.
For series [16], the system named is CCRF-CEM. In words: Induction of apoptosis in human CCRF-CEM cells assessed as PARP cleavage at 1 to 5 times IC50 incubated for 24 hrs by Western blot analysis. It is filed as functional, cell-based.
Series [17] concerns CCRF-CEM. Nature of the series: Induction of apoptosis in human CCRF-CEM cells assessed as increase in Noxa expression at 1 to 5 times IC50 incubated for 24 hrs by Western blot analysis. Format: functional, cell-based.
Series [18] has as its system CCRF-CEM. In words: Induction of apoptosis in human CCRF-CEM cells assessed as decrease in c-Myc expression at 1 to 5 times IC50 incubated for 24 hrs by Western blot analysis. It is filed as functional, cell-based.

With `C=C(C)[C@@H]1CC[C@]2(C(=O)OCc3oc(=O)oc3C)CC[C@]3(C)[C@H](CC[C@@H]4[C@@]5(C)CCC(=O)C(C)(C)[C@@H]5CC[C@]43C)[C@@H]12`, the IC50 (usually the concentration that gives 50% inhibition) in the series with CCRF-CEM [1] worked out at 2.3 µM; with CEM-DNR, 9.1 µM; in the series with K562, 0.87 µM; in series [2] it was 11 µM; with HCT-116 it was 21 µM; in [3], 19 µM. Also, the 50% inhibitory concentration (IC50) in the series on A549 is 9.5 µM; in the series on U2OS, 22 µM. For the same compound, the IC50 at 72 h in series [4] was over 50 µM; in [5], 47 µM. Also, the Activity in the series on CCRF-CEM [6] is given as 89.8%; with CCRF-CEM [7], 2%; in the series with CCRF-CEM [8], 1.9%; in the series with CCRF-CEM [9], 6.4%; with CCRF-CEM [10], 85.3%; in the series on CCRF-CEM [11], 7.1%. Moreover, the Activity in the series on CCRF-CEM [12] was found to be 6.5%; in the series on CCRF-CEM [13] it was 1.1%. Moreover, the outcome with CCRF-CEM [14], with CCRF-CEM [15], with CCRF-CEM [16] and in the series on CCRF-CEM [17] was Active.
As to `C=C(C=O)[C@@H]1CC[C@]2(C(=O)OCc3cn([C@H]4O[C@H](CO)[C@@H](O)[C@H](O)[C@H]4O)nn3)CC[C@]3(C)[C@H](CC[C@@H]4[C@@]5(C)Cc6nccnc6C(C)(C)[C@@H]5CC[C@]43C)[C@@H]12` (stereo in doubt), the Activity is reported as 86.9% in the series with CCRF-CEM [6]; 4.9% in the series with CCRF-CEM [7]; 3.3% in the series on CCRF-CEM [8]; 5% in the series on CCRF-CEM [9]; 0.6% in the series with CCRF-CEM [10]; 41.5% in the series with CCRF-CEM [11]. Further, the Activity in the series with CCRF-CEM [12] came to 57.7%; in the series with CCRF-CEM [13], 0.1%. For the same compound, the result in the series with CCRF-CEM [14], with CCRF-CEM [15], in the series on CCRF-CEM [16], with CCRF-CEM [17] and with CCRF-CEM [18] was Active.
For `C=C(C)[C@@H]1CC[C@]2(C(=O)OCc3oc(=O)oc3C)CC[C@]3(C)[C@H](CC[C@@H]4[C@@]5(C)CC[C@H](O)C(C)(C)[C@@H]5CC[C@]43C)[C@@H]12`, the IC50 with CCRF-CEM [1] worked out at 4.5 µM; with CEM-DNR it was 14 µM; with K562, 8.3 µM; in [2] it was 12 µM; with HCT-116, 17 µM; in series [3], 15 µM. Further, the IC50 in the series with A549 stood at 13 µM; in the series on U2OS, 19 µM. Also, the values for the IC50 at 72 h in series [4] and in series [5] were 44 µM and 41 µM, respectively. In addition, the Activity in the series with CCRF-CEM [6] is on record as 87.4%; in the series with CCRF-CEM [7] it was 2.1%; with CCRF-CEM [8] it was 1.9%; with CCRF-CEM [9], 8.7%; in the series with CCRF-CEM [10], 83.7%; in the series on CCRF-CEM [11] it was 6.1%. Also, the Activity is on record as 3.4% in the series on CCRF-CEM [12] and 6.8% with CCRF-CEM [13]. The result in the series on CCRF-CEM [14], in the series with CCRF-CEM [15], with CCRF-CEM [16], in the series with CCRF-CEM [17] and in the series with CCRF-CEM [18] was Active.
In the case of `CC1(C)CC[C@]23CC[C@]4(C)[C@H](CC[C@@H]5[C@@]6(C)CCC(=O)C(C)(C)[C@@H]6CC[C@]54C)[C@H]2[C@H]1OC3`, the IC50 (in the series on CCRF-CEM [1]; with CEM-DNR; with K562; in series [2]; in the series with HCT-116; in [3]) was over 50 µM throughout. In addition, the IC50 with A549 and in the series on U2OS was over 50 µM in each case. The half-maximal inhibitory concentration (IC50) at 72 h in series [4] and in [5] was over 50 µM each time.
For `CC1(C)CC[C@]23CC[C@]4(C)[C@H](CC[C@@H]5[C@@]6(C)Cc7nccnc7C(C)(C)[C@@H]6CC[C@]54C)[C@H]2[C@H]1OC3`, the IC50 (with CCRF-CEM [1]; with CEM-DNR; with K562; in series [2]; with HCT-116; in series [3]) was over 50 µM each time. Also, the half-maximal inhibitory concentration (IC50) in the series on A549 and with U2OS was over 50 µM in each case. Besides, the IC50 at 72 h in series [4] and in [5] was over 50 µM throughout.
Regarding `CC1=CC[C@]2(C(=O)O)CC[C@]3(C)[C@H](CC[C@@H]4[C@@]5(C)Cc6nccnc6C(C)(C)[C@@H]5CC[C@]43C)[C@H]2[C@@H]1C`, the half-inhibitory concentration (IC50) in the series on CCRF-CEM [1] worked out at 7.2 µM; with CEM-DNR it was 10 µM; in the series with K562, 18 µM; in series [2], 10 µM; in the series on HCT-116, 48 µM; in series [3], 50 µM. Further, the IC50 was found to be 44 µM in the series on A549 and 46 µM in the series on U2OS. Also, the IC50 at 72 h in series [4] and in [5] was over 50 µM throughout.
Consider `CC1=CC[C@]2(C(=O)O)CC[C@]3(C)[C@H](CC[C@@H]4[C@@]5(C)CCC(=O)C(C)(C)[C@@H]5CC[C@]43C)[C@H]2[C@@H]1C`, for which the IC50 in the series with CCRF-CEM [1] was determined as 6.5 µM; in the series on CEM-DNR it was 11 µM; in the series with K562, 8.5 µM; in series [2], 28 µM; in the series on HCT-116, 32 µM; in series [3] it was 35 µM. Also, the IC50 in the series with A549 and with U2OS was 24 µM in each case. Besides, the IC50 at 72 h was found to be 35 µM in series [4] and 33 µM in series [5].
Turning to `Cc1oc(=O)oc1COC(=O)[C@]12CC[C@@H](C(C)C)[C@@H]1[C@H]1CC[C@@H]3[C@@]4(C)Cc5cccnc5C(C)(C)[C@@H]4CC[C@@]3(C)[C@]1(C)CC2`, the 50% inhibitory concentration (IC50) with CCRF-CEM [1] was 46 µM; with CEM-DNR, 50 µM; in the series with K562, 0.043 µM; in series [2] it was over 50 µM; in the series on HCT-116, over 50 µM; in series [3], over 50 µM. For the same compound, the IC50 with A549 and with U2OS was over 50 µM in each case. For the same compound, the IC50 at 72 h in [4] and in series [5] was over 50 µM each time.
Regarding `C[C@H]1[C@H](C)CC[C@]2(C(=O)O)CC[C@]3(C)C(=CC[C@@H]4[C@@]5(C)CCC(=O)C(C)(C)[C@@H]5CC[C@]43C)[C@H]12` [URSONIC ACID], the IC50 is 16 µM in the series with CCRF-CEM [1]; 19 µM in the series on CEM-DNR; over 50 µM with K562; 27 µM in series [2]; 47 µM in the series on HCT-116; over 50 µM in series [3]. Moreover, the results for the IC50 in the series on A549 and in the series with U2OS were 50 µM and over 50 µM, respectively. The IC50 at 72 h in series [4] and in series [5] was over 50 µM in each case.
